Results as given in PubChem BioAssay AID330 (DTP/NCI, 2004).
Where “and” joins values, the source holds several entries; their conditions need not be identical. Identical values can stand only once. Inconclusive results and toxic doses are left out. How the source made its calls: active means survival T/C of 150% or more; inactive means T/C below 125% in these data.

Tested on: P388 leukemia ip, CD2F1 mice, survival T/C
Assay: NCI In Vivo Anticancer Drug Screen. Data for tumor model P388 Leukemia (intraperitoneal) in CD2F1 (CDF1) mice
Conditions: endpoint: median survival time, higher = longer survival
In short: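 Mice carrying the transplanted tumor received test compound or vehicle. Survival was recorded in each group, and the value is the treated-group measurement divided by that of the vehicle-treated control group.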

[1] = dose: 50.0 mg/kg/injection, schedule: Q01DX005 (ip), vehicle: Klucel (hydroxypropylcellulose) (HPC)
[2] = dose: 100.0 mg/kg/injection, schedule: Q01DX005 (ip), vehicle: Klucel (hydroxypropylcellulose) (HPC)
[3] = dose: 200.0 mg/kg/injection, schedule: Q01DX005 (ip), vehicle: Klucel (hydroxypropylcellulose) (HPC)
[4] = dose: 50.0 mg/kg/injection, schedule: Q01DX005 (ip), vehicle: saline with Tween-80
[5] = dose: 50.0 mg/kg/injection, schedule: Q01DX009 (ip), vehicle: saline
[6] = dose: 100.0 mg/kg/injection, schedule: Q01DX009 (ip), vehicle: saline
[7] = dose: 200.0 mg/kg/injection, schedule: Q01DX009 (ip), vehicle: saline
[8] = dose: 100.0 mg/kg/injection, schedule: Q01DX005 (ip), vehicle: saline with Tween-80
[9] = dose: 200.0 mg/kg/injection, schedule: Q01DX005 (ip), vehicle: saline with Tween-80
[10] = dose: 50.0 mg/kg/injection, schedule: Q01DX009 (ip), vehicle: saline with Tween-80
[11] = dose: 100.0 mg/kg/injection, schedule: Q01DX009 (ip), vehicle: saline with Tween-80
[12] = dose: 100.0 mg/kg/injection, schedule: Q04DX003 (ip), vehicle: saline with Tween-80
[13] = dose: 200.0 mg/kg/injection, schedule: Q04DX003 (ip), vehicle: saline with Tween-80
[14] = dose: 60.0 mg/kg/injection, schedule: Q01DX005 (ip), vehicle: saline with Tween-80
[15] = dose: 120.0 mg/kg/injection, schedule: Q01DX005 (ip), vehicle: saline with Tween-80
[16] = dose: 240.0 mg/kg/injection, schedule: Q01DX005 (ip), vehicle: saline with Tween-80
[17] = dose: 100.0 mg/kg/injection, schedule: Q04DX003 (ip), vehicle: saline
[18] = dose: 200.0 mg/kg/injection, schedule: Q04DX003 (ip), vehicle: saline
[19] = dose: 60.0 mg/kg/injection, schedule: Q01DX005 (ip), vehicle: Klucel (hydroxypropylcellulose) (HPC)
[20] = dose: 120.0 mg/kg/injection, schedule: Q01DX005 (ip), vehicle: Klucel (hydroxypropylcellulose) (HPC)
[21] = dose: 240.0 mg/kg/injection, schedule: Q01DX005 (ip), vehicle: Klucel (hydroxypropylcellulose) (HPC)

Measured: T/C

CC(=O)NC(CCS)C(N)=O (stereo not given)
inactive: [1] 87 % of control | [2] 99 % of control | [3] 97 % of control

CC1(C)CC[P+](CC[P+]2(c3ccccc3)CCC(C)(C)c3ccccc32)(c2ccccc2)c2ccccc21 (stereo not given)
inactive: dose: 0.75 mg/kg/injection, schedule: Q01DX005 (ip), vehicle: saline 103 % of control | dose: 1.5 mg/kg/injection, schedule: Q01DX005 (ip), vehicle: saline 101 % of control | dose: 3.0 mg/kg/injection, schedule: Q01DX005 (ip), vehicle: saline 103 % of control | dose: 3.12 mg/kg/injection, schedule: Q01DX005 (ip), vehicle: suspension in saline 89 % of control | dose: 12.5 mg/kg/injection, schedule: Q01DX005 (ip), vehicle: saline with Tween-80 100 % of control | dose: 25.0 mg/kg/injection, schedule: Q01DX005 (ip), vehicle: saline with Tween-80 100 % of control | [4] 102 % of control

COc1ccc2c(=O)c(Cc3c[nH]c4ccccc34)coc2c1
inactive: dose: 7.5 mg/kg/injection, schedule: Q01DX005 (ip), vehicle: saline with Tween-80 100 % of control | dose: 15.0 mg/kg/injection, schedule: Q01DX005 (ip), vehicle: saline with Tween-80 93 % of control | dose: 30.0 mg/kg/injection, schedule: Q01DX005 (ip), vehicle: saline with Tween-80 86 % of control

COc1ccc(-c2c(O)c3cccnc3[nH]c2=O)cc1
inactive: [5] 102 % of control | [6] 104 % of control | [7] 102 % of control

COc1ccc(N2C(=O)CCSC23C(=O)N(CN2CCOCC2)c2ccccc23)cc1 (stereo not given)
inactive: [4] 103 % of control | [8] 106 % of control | [9] 95 % of control

Cc1ccc(N/N=C2\CC(=O)NC(=O)N2)cc1C
inactive: [10] 104 % of control | [11] 104 % of control | dose: 200.0 mg/kg/injection, schedule: Q01DX009 (ip), vehicle: saline with Tween-80 99 % of control

OC1(C2=COCCO2)CCCCC1
inactive: dose: 60.0 mg/kg/injection, schedule: Q01DX005 (ip), vehicle: saline 105 % of control | dose: 120.0 mg/kg/injection, schedule: Q01DX005 (ip), vehicle: saline 110 % of control | dose: 240.0 mg/kg/injection, schedule: Q01DX005 (ip), vehicle: saline 105 % of control

CCOP(=O)(Nc1cc2c(=O)n(C)cnc2cc1Cl)OCC
inactive: [12] 105 % of control | [13] 100 % of control

CCN(CC)CC(COC)Oc1cc(C)ccc1C(C)C (stereo not given)
inactive: dose: 50.0 mg/kg/injection, schedule: Q04DX003 (ip), vehicle: saline with Tween-80 104 % of control | [12] 95 % of control | [13] 109 % of control

CCOc1c(N=Nc2ccccc2Cl)c(C)nn1C(=S)S
inactive: dose: 15.0 mg/kg/injection, schedule: Q01DX005 (ip), vehicle: Klucel + Tween-80 95 % of control | dose: 30.0 mg/kg/injection, schedule: Q01DX005 (ip), vehicle: Klucel + Tween-80 100 % of control | dose: 60.0 mg/kg/injection, schedule: Q01DX005 (ip), vehicle: Klucel + Tween-80 96 % of control

CN1C(NN)=NS(=O)(=O)c2ccccc21
inactive: [14] 106 % of control | [15] 103 % of control | [16] 106 % of control

COC(=O)c1ccnc(-c2cc(C(=O)OC)ccn2)c1
inactive: [5] 99 % of control | [6] 93 % of control | [7] 92 % of control

CC(C)(C)C1CCC(O)(Cc2ccccc2)CC1 (stereo not given)
inactive: [4] 101 % of control | [8] 91 % of control | [9] 99 % of control

Cc1ccc2c(c1)C(=S)NC(=O)C2
inactive: dose: 12.5 mg/kg/injection, schedule: Q01DX009 (ip), vehicle: distilled water + Tween-80 87 % of control | dose: 50.0 mg/kg/injection, schedule: Q01DX009 (ip), vehicle: distilled water + Tween-80 93 % of control | dose: 100.0 mg/kg/injection, schedule: Q01DX009 (ip), vehicle: distilled water + Tween-80 91 % of control | dose: 200.0 mg/kg/injection, schedule: Q01DX009 (ip), vehicle: distilled water + Tween-80 95 % of control

N#Cc1c2c(c(=O)n3c1[nH]c1ccccc13)CCCC2
inactive: [14] 93 % of control | [15] 94 % of control | [16] 90 % of control

Cc1cc(NCCO)nc2c1ccc1ccccc12
inactive: dose: 25.0 mg/kg/injection, schedule: Q01DX009 (ip), vehicle: saline with Tween-80 90 % of control | [10] 91 % of control | [11] 101 % of control

CC1OC(O)C(O)C(O)C1O (stereo not given)
inactive: [1] 101 % of control | [2] 93 % of control | [3] 104 % of control

C=CCc1ccccc1/C=N/NS(=O)(=O)c1ccc(C)cc1
inactive: dose: 100.0 mg/kg/injection, schedule: Q04DX002 (ip), vehicle: saline with Tween-80 100 % of control | dose: 200.0 mg/kg/injection, schedule: Q04DX002 (ip), vehicle: saline with Tween-80 98 % of control | dose: 400.0 mg/kg/injection, schedule: Q04DX002 (ip), vehicle: saline with Tween-80 97 % of control

Cc1nc2ccccc2nc1C1=C(O)c2ccccc2CC1=O
inactive: [14] 95 % of control | [15] 90 % of control | [16] 93 % of control

O=S1(=O)CCCO1
inactive: [17] 100 % of control | [18] 118 % of control

O=S1(=O)CCN(c2ccccc2)CC1
inactive: [5] 96 % of control | [6] 98 % of control | [7] 95 % of control

CC(O)C(=O)NCCO (stereo not given)
inactive: dose: 50.0 mg/kg/injection, schedule: Q01DX005 (ip), vehicle: saline 99 % of control | dose: 100.0 mg/kg/injection, schedule: Q01DX005 (ip), vehicle: saline 93 % of control | dose: 200.0 mg/kg/injection, schedule: Q01DX005 (ip), vehicle: saline 100 % of control

CCOc1cnc(CO)o1
inactive: [17] 103 % of control | [18] 104 % of control | dose: 400.0 mg/kg/injection, schedule: Q04DX003 (ip), vehicle: saline 97 % of control

CNCCCCCc1cc(-c2ccc([N+](=O)[O-])cc2)on1
inactive: [12] 95 % of control | [13] 100 % of control

COc1ccc(-n2c(O)c(N=Nc3nc4ccc([N+](=O)[O-])cc4s3)c(=O)n(-c3ccccc3)c2=S)cc1
inactive: [19] 103 % of control | [20] 100 % of control | [21] 91 % of control

Cc1ccc2nc(CC(=O)c3ccc(F)cc3)c(=O)[nH]c2c1
inactive: [14] 100 % of control | [15] 100 % of control | [16] 107 % of control

O=C1C=CC(=O)N1c1ccc(Br)cc1Cl
inactive: dose: 1.0 mg/kg/injection, schedule: Q01DX009 (ip), vehicle: saline 104 % of control | dose: 1.8 mg/kg/injection, schedule: Q04DX003 (ip), vehicle: saline 113 % of control | dose: 2.0 mg/kg/injection, schedule: Q01DX009 (ip), vehicle: saline 109 % of control | dose: 2.6 mg/kg/injection, schedule: Q04DX003 (ip), vehicle: saline 109 % of control | dose: 4.0 mg/kg/injection, schedule: Q01DX009 (ip), vehicle: saline 113 % of control | dose: 4.0 mg/kg/injection, schedule: Q04DX003 (ip), vehicle: saline 113 % of control | dose: 6.0 mg/kg/injection, schedule: Q04DX003 (ip), vehicle: saline 118 % of control

CS/C(=C\c1ccc(C(=O)c2ccc(C)cc2)n1C)S(C)=O (stereo not given)
inactive: dose: 30.0 mg/kg/injection, schedule: Q01DX005 (ip), vehicle: Klucel (hydroxypropylcellulose) (HPC) 94 % of control | [19] 91 % of control and 94 % of control | [20] 92 % of control | [21] 88 % of control

COc1ccc2c(c1)CCc1c-2nc(N)nc1-c1nc(N)nc2c1CCc1cc(OC)ccc1-2
inactive: [14] 100 % of control | [15] 100 % of control | [16] 100 % of control

N=C1/C(=C\c2ccccc2O)C(=O)NN1C(=O)c1ccncc1
inactive: dose: 100.0 mg/kg/injection, schedule: Q01DX001 (ip), vehicle: saline 103 % of control | dose: 200.0 mg/kg/injection, schedule: Q01DX001 (ip), vehicle: saline 98 % of control | dose: 400.0 mg/kg/injection, schedule: Q01DX001 (ip), vehicle: saline 104 % of control

C/C=C\C=C/NC(=O)N1CCCC1
inactive: [14] 113 % of control | [15] 118 % of control | [16] 116 % of control
